Results: patent US12472230B2, “Peptides and methods of use thereof in treating uveitis” (Park Strategic Ventures LLC, priority 2019, dated 2025)
Values after ≈ are worked out from the molar mass of the structure shown. Residues, ends and D or L forms follow the SMILES beside them. No end group written: not given here. *: point of attachment. Myristoyl = CCCCCCCCCCCCCC(=O)*

Assays:
Solubility in HNS = type: physicochemical
T/2 in human plasma = type: in vitro ADME
[1] = system: release of inflammatory mediators from leukocyte cell types; assay: Release of inflammatory mediators from leukocyte cell types, MANS versus RNS; type: cell-based, human; conditions: each of the cell types examined; time course of 0.5-3.0 hrs
Protocol: In an in vitro method to inhibit or attenuate the release of a mediator of inflammation such as those described herein, each of the cell types is preincubated with a peptide compound or peptide composition of this disclosure over a range of concentrations followed by incubation of these cells by a stimulator of release of inflammatory mediators, such as phorbol ester. The percent of inhibition of release of a mediator of inflammation is determined as compared to the release of the mediator in the absence of the peptide compound or peptide composition, such as in a specrophotometric readout of a concentration of the mediator released.

Molecule | solubility (Solubility in HNS) | half-life (T/2 in human plasma) | other results
Ac-GAQFSKTA-OH [BIO-10803] | 200 mg/mL |  | 
Ac-GAQFSKTAAKGEAAAERPGEAAVA-OH [Ac-MANS] | 125 mg/mL |  | 
CCCCCCCCCCCCCC(=O)NCC(=O)N[C@@H](C)C(=O)N[C@@H](CCC(N)=O)C(=O)N[C@@H](Cc1ccccc1)C(=O)N[C@@H](CO)C(=O)N[C@@H](CCCCN)C(=O)N[C@H](C(=O)N[C@@H](C)C(=O)N[C@@H](C)C(=O)N[C@@H](CCCCN)C(=O)NCC(=O)N[C@@H](CCC(=O)O)C(=O)N[C@@H](C)C(=O)N[C@@H](C)C(=O)N[C@@H](C)C(=O)N[C@@H](CCC(=O)O)C(=O)N[C@@H](CCCNC(=N)N)C(=O)N1CCC[C@H]1C(=O)NCC(=O)N[C@@H](CCC(=O)O)C(=O)N[C@@H](C)C(=O)N[C@@H](C)C(=O)N[C@H](C(=O)N[C@@H](C)C(=O)O)C(C)C)[C@@H](C)O [MANS] (Myristoyl-GAQFSKTAAKGEAAAERPGEAAVA-OH; C-terminus assumed) | < 5 mg/mL | 12 min | 
H-GAQFSKTAAK-NH2 [BIO-11005] | 100 mg/mL | 20 min | 
C[C@@H]1NC(=O)CNC(=O)[C@H](CCCCN)NC(=O)[C@H](C)NC(=O)[C@H](C)NC(=O)[C@H]([C@@H](C)O)NC(=O)[C@H](CCCCN)NC(=O)[C@H](CO)NC(=O)[C@H](Cc2ccccc2)NC(=O)[C@H](CCC(N)=O)NC1=O [BIO-11007] (cyclo(GAQFSKTAAK); ring closure inferred) | 150 mg/mL (≈ 151 mM) |  | 
CCCCCCCCCCCCCC(=O)NCC(=O)N[C@@H](C)C(=O)N[C@@H](CCC(N)=O)C(=O)N[C@@H](Cc1ccccc1)C(=O)N[C@@H](CO)C(=O)N[C@@H](CCCCN)C(=O)N[C@H](C(=O)N[C@@H](C)C(=O)N[C@@H](C)C(=O)N[C@@H](CCCCN)C(N)=O)[C@@H](C)O [BIO-11002] (Myristoyl-GAQFSKTAAK-NH2) | < 10 mg/mL |  | T/2 (human plasma), in words (T/2 in human plasma): stable
BIO-11018: SEQ ID NO 106 pegylated (GAQFSKTAAK; also: PEGylated, site not given here) |  |  | Solubility in HNS (Solubility in HNS): >100 mg/mL
GTAPAAEGAGAEVKRASAEAKQAF [RNS] |  |  | release of inflammatory mediators [1]: not
Ac-GAQFSKTAAKGE-NH2 [BIO-11211] | 60 mg/mL | > 156 min | 

Second part, led by results:

solubility (Solubility in HNS) | Molecule | half-life (T/2 in human plasma) | other results
~1 mg/mL (≈ 1.63 mM) | CCCCCCCCCCCCCC(=O)N[C@@H](C)C(=O)N[C@@H](CCCCN)C(=O)NCC(=O)N[C@@H](CCC(=O)O)C(=O)O [BIO-91200, Ma-AKGE-OH] (Myristoyl-AKGE-OH) |  | 
200 mg/mL (≈ 449 mM) | CC(=O)N[C@@H](C)C(=O)N[C@@H](CCCCN)C(=O)NCC(=O)N[C@@H](CCC(=O)O)C(=O)O [BIO-91201, Ac-AKGE-OH] (Ac-AKGE-OH) |  | 
15 mg/mL (≈ 12.3 mM) | CCCCCCCCCCCCCC(=O)NCC(=O)N[C@@H](C)C(=O)N[C@@H](CCC(N)=O)C(=O)N[C@@H](Cc1ccccc1)C(=O)N[C@@H](CO)C(=O)N[C@@H](CCCCN)C(=O)N[C@H](C(=O)N[C@@H](C)C(=O)N[C@@H](C)C(=O)N[C@@H](CCCCN)C(=O)O)[C@@H](C)O [BIO-11000] (Myristoyl-GAQFSKTAAK-OH) | 72 min | 
> 60 mg/mL | Ac-GAQFSKTAA-OH [BIO-10901] | 5 min | 
200 mg/mL (≈ 450 mM) | CC(=O)N[C@@H](C)C(=O)N[C@@H](CCCCN)C(=O)NCC(=O)N[C@@H](CCC(=O)O)C(N)=O [BIO-91202, Ac-AKGE-NH2] (Ac-AKGE-NH2) |  | 
